Measured values: ChEMBL document CHEMBL3881525, “Analogs of dehydrophenylahistins and their therapeutic use” (2007)
≈ marks a conversion by molar mass, not a printed value. Calls of active or inactive are those of the source. The rule behind the calls is not given here.

Key:
[1] = Antifungal activity against Epidermophyton floccosum isolate 2 measured after 48 hrs by broth dilution method; type: functional
Trichophyton rubrum [2] = assay: Fungicidal activity against Trichophyton rubrum isolate 2 measured after 48 hrs by broth dilution method; type: functional; conditions: isolate 2, 48 h
[3] = Antifungal activity against Epidermophyton floccosum isolate 1 measured after 48 hrs by broth dilution method; type: functional
[4] = Antifungal activity against Trichophyton mentagrophytes isolate 1 measured after 48 hrs by broth dilution method; type: functional
[5] = Antifungal activity against Trichophyton rubrum isolate 2 measured after 48 hrs by broth dilution method; type: functional
[6] = Antifungal activity against Trichophyton rubrum isolate 1 measured after 48 hrs by broth dilution method; type: functional
[7] = Antifungal activity against Trichophyton mentagrophytes isolate 2 measured after 48 hrs by broth dilution method; type: functional
[8] = test system: Trichophyton mentagrophytes; assay: Fungicidal activity against Trichophyton mentagrophytes isolate 1 measured after 48 hrs by broth dilution method; type: functional; conditions: isolate 1, 48 h
Trichophyton rubrum [9] = assay: Fungicidal activity against Trichophyton rubrum isolate 1 measured after 48 hrs by broth dilution method; type: functional; conditions: isolate 1, 48 h
B16-F10 = assay: Ratio of IC50 for human CCD-27sk cells to IC50 for mouse B16F10 cells
[10] = Antiproliferative activity against human mitoxantrone-resistant HL60/MX2 cells; type: functional, cell-based; conditions: HL-60
HUVEC = assay: Induction of monolayer permeability in HUVEC assessed as colchicin transport at 2 uM measured up to 1 hr; type: functional, cell-based; conditions: Homo sapiens
Aspergillus fumigatus [11] = assay: Antifungal activity against Aspergillus fumigatus isolate 1 measured after 48 hrs by broth dilution method; type: functional; conditions: isolate 1, 48 h
MCF7 = assay: Potentiation of taxotere-induced antitumor activity against human MCF7 cells xenografted in nude mouse assessed as tumor growth inhibition at 7.5 mg/kg, ip qd for 4 days measured on day 7; type: functional, organism-based
[12] = Cytotoxicity against human PC3 cells assessed as reduction in cell viability measured after 48 hrs by resazurin dye-based fluorometric analysis relative to control; type: functional, PC-3; parameters: concentration or dose not given beside the values
Jurkat = assay: Induction of apoptosis in human Jurkat cells assessed as caspase3 activation; type: functional, cell-based
[13] = Cytotoxicity against human MDA-MB-231 cells assessed as reduction in cell viability measured after 48 hrs by resazurin dye-based fluorometric analysis; type: functional; conditions: MDA-MB-231, 48 h
MES-SA = assay: Ratio of IC50 for taxol-sensitive human […] to IC50 for taxol-sensitive human […] pretreated with p-gp inhibitor cyclosporinA followed by compound addition; type: functional
[14] = Antiproliferative activity against taxol-sensitive human MES-SA cells […]; type: functional, cell-based
MES-SA/Dx5 = assay: Ratio of IC50 for taxol-resistant human MES-SA/Dx5 cells expressing MDR1 mRNA and P-gp to IC50 for taxol-resistant human MES-SA/Dx5 cells expressing MDR1 mRNA and P-gp pretreated with p-gp inhibitor cyclosporinA followed by compound addition; type: functional
PC-3 = assay: Ratio of IC50 for human CCD-27sk cells to IC50 for human PC3 cells
[15] = Cytotoxicity against human CCD-27Sk cells assessed as reduction in cell viability measured after 48 hrs by resazurin dye-based fluorometric analysis relative to control; conditions: read-out: INH
[16] = Cytotoxicity against human HT-29 cells assessed as reduction in cell viability measured after 48 hrs by resazurin dye-based fluorometric analysis; type: functional; conditions: Homo sapiens, HT-29, 48 h
[17] = Antiproliferative activity against human mitoxantrone-sensitive HL60 cells; type: functional, cell-based; conditions: HL-60
[18] = Antiproliferative activity against taxol-resistant human MES-SA/Dx5 cells expressing MDR1 mRNA and P-gp pretreated with p-gp inhibitor cyclosporinA followed by compound addition; type: functional, cell-based
[19] = Antitumor activity against human HT-29 cells xenografted in nude mouse assessed as tumor growth inhibition at 30 mg/kg, ip administered every third day for 5 days in presence of CPT-11 relative to control; type: functional; conditions: HT-29, ip, 120 h, read-out: TGI
[20] = Cytotoxicity against mouse B16F10 cells assessed as reduction in cell viability measured after 48 hrs by resazurin dye-based fluorometric analysis relative to control; type: functional, B16-F10
[21] = Cytotoxicity against human CCD-27Sk cells assessed as reduction in cell viability measured after 48 hrs by resazurin dye-based fluorometric analysis
Aspergillus fumigatus [22] = assay: Fungicidal activity against Aspergillus fumigatus isolate 2 measured after 48 hrs by broth dilution method; type: functional; conditions: isolate 2, 48 h
[23] = Cytotoxicity against mouse B16F10 cells assessed as reduction in cell viability measured after 48 hrs by resazurin dye-based fluorometric analysis; type: functional; conditions: B16-F10, 48 h
[24] = Antifungal activity against Candida glabrata measured after 48 hrs by broth dilution method; type: functional; conditions: Nakaseomyces glabratus
NCI-H292 = assay: Ratio of IC50 for human CCD-27sk cells to IC50 for human NCI-H292 cells
[25] = Cytotoxicity against human Jurkat cells; type: functional, cell-based
[26] = Cytotoxicity against human NCI-H292 cells assessed as reduction in cell viability measured after 48 hrs by resazurin dye-based fluorometric analysis; type: functional; conditions: NCI-H292, 48 h
[27] = Cytotoxicity against human OVCAR3 cells assessed as reduction in cell viability measured after 48 hrs by resazurin dye-based fluorometric analysis relative to control; type: functional, OVCAR-3
[28] = Cytotoxicity against human OVCAR3 cells assessed as reduction in cell viability measured after 48 hrs by resazurin dye-based fluorometric analysis; type: functional; conditions: OVCAR-3, 48 h
HT-29 = assay: Ratio of IC50 for human CCD-27sk cells to IC50 for human HT-29 cells
[29] = Cytotoxicity against human NCI-H292 cells assessed as reduction in cell viability measured after 48 hrs by resazurin dye-based fluorometric analysis relative to control; type: functional
[30] = Cytotoxicity against human PC3 cells assessed as reduction in cell viability measured after 48 hrs by resazurin dye-based fluorometric analysis; type: functional; conditions: PC-3, 48 h
[31] = Cytotoxicity against human HT-29 cells assessed as reduction in cell viability measured after 48 hrs by resazurin dye-based fluorometric analysis relative to control; type: functional
[32] = Antiproliferative activity against taxol-resistant human MES-SA/Dx5 cells expressing MDR1 mRNA and P-gp; type: functional, cell-based
Candida albicans [33] = assay: Antifungal activity against Candida albicans 90028 measured after 48 hrs by broth dilution method; type: functional; conditions: Candida albicans, 90028, 48 h
Candida albicans [34] = assay: Antifungal activity against Candida albicans ATCC 10231 measured after 48 hrs by broth dilution method; type: functional; conditions: ATCC 10231, 48 h
HL-60 = assay: Ratio of IC50 for human mitoxantrone-sensitive HL60 cells to IC50 for human mitoxantrone-resistant HL60/MX2 cells; type: functional
Aspergillus fumigatus [35] = assay: Antifungal activity against Aspergillus fumigatus isolate 2 measured after 48 hrs by broth dilution method; type: functional; conditions: isolate 2, 48 h
[36] = Antiproliferative activity against taxol-sensitive human MES-SA cells pretreated with p-gp inhibitor cyclosporinA followed by compound addition; type: functional, cell-based
MDA-MB-231 = assay: Ratio of IC50 for human CCD-27sk cells to IC50 for human MDA-MB-231 cells

In the case of `CC(C)(C)c1[nH]cnc1/C=C1\NC(=O)[C@H](Cc2ccccc2)NC1=O`, the MIC [1] is reported as over 16 µg/mL, the MFC (Trichophyton rubrum [2]) is reported as under 0.03 µg/mL and the MIC [3] is reported as over 16 µg/mL. It also gave an MIC [4] of 4 µg/mL (≈ 11.8 µM), an MIC [5] of under 0.03 µg/mL and an MIC [6] of under 0.03 µg/mL. It also gave an MIC [7] of over 16 µg/mL, an MFC [8] of over 16 µg/mL and an MFC (Trichophyton rubrum [9]) of 0.125 µg/mL (≈ 0.369 µM).

In the case of `CC(C)(C)c1[nH]cnc1/C=C1\NC(=O)C(Cc2ccccc2)NC1=O` (stereo not drawn), the “Ratio IC50” value (B16-F10) is reported as >20 - 100, the EC50 [10] is reported as 175 nM and the Activity (HUVEC) is reported as “Active”. For the same molecule, the MIC (Aspergillus fumigatus [11]) was over 16 µg/mL, the TGI (MCF7) was “Active” and the Activity [12] was 59.5%. For the same molecule, the Activity (Jurkat) was “Dose-dependent effect”, the EC50 [13] was 387 nM and the “Ratio IC50” value (MES-SA) was 1.3. The EC50 [14] was 122 to 144 nM, the “Ratio IC50” value (MES-SA/Dx5) was 0.9 and the “Ratio IC50” value (PC-3) was >20 - 100. It also gave a cytotoxicity at 48 h [15] of 45%, an EC50 [16] of 255 to 420 nM and an EC50 [17] of 255 nM. The IC50 [18] was 622 nM, the inhibition in vivo at 30 mg/kg [19] was 77.7% and the “inhibition (INH)” value [20] was 74%. It also gave an EC50 [21] of over 20 µM, an MFC (Aspergillus fumigatus [22]) of 0.125 µg/mL (≈ 0.369 µM) and an EC50 [23] of 736 nM. For the same molecule, the MIC [24] was over 32 µg/mL, the “Ratio IC50” value (NCI-H292) was >20 - 100 and the IC50 [25] was 165 nM. The EC50 [26] was 384 nM, the “inhibition (INH)” value [27] was 37% and the EC50 [28] was over 20 µM. The “Ratio IC50” value (HT-29) was >20 - 100, the “inhibition (INH)” value [29] was 65% and the EC50 [30] was 174 nM. The Activity [31] was 88%, the IC50 [32] was 694 to 835 nM and the MIC (Candida albicans [33]) was over 32 µg/mL. For the same molecule, the MIC (Candida albicans [34]) was over 32 µg/mL, the “Ratio IC50” value (HL-60) was 0.69 and the MIC (Aspergillus fumigatus [35]) was under 0.03 µg/mL. For the same molecule, the IC50 [36] was 27.4 nM and the “Ratio IC50” value (MDA-MB-231) was >20 - 100.

`COc1cc(/C=c2\[nH]c(=O)/c(=C/c3nc[nH]c3C(C)(C)C)[nH]c2=O)cc(OC)c1OC` gave an MIC [1] of over 16 µg/mL, an MIC (Aspergillus fumigatus [11]) of over 16 µg/mL and an MFC (Trichophyton rubrum [2]) of under 0.03 µg/mL. For the same molecule, the EC50 [16] was 819 to 2000 nM, the MIC [3] was over 16 µg/mL and the MIC [4] was 1 µg/mL (≈ 2.34 µM). For the same molecule, the MIC [5] was under 0.03 µg/mL, the MFC (Aspergillus fumigatus [22]) was over 16 µg/mL and the MIC [24] was over 32 µg/mL. It also gave an MIC [6] of 0.06 µg/mL (≈ 0.141 µM), an MIC [7] of over 16 µg/mL and an MIC (Candida albicans [33]) of over 32 µg/mL. The MIC (Candida albicans [34]) was over 32 µg/mL, the MFC [8] was over 16 µg/mL and the MFC (Trichophyton rubrum [9]) was over 16 µg/mL. The MIC (Aspergillus fumigatus [35]) was 0.06 µg/mL (≈ 0.141 µM).
